We go through two molecules from patent US20230190947A1, “Hemoglobin-Targeted Drug Delivery For The Treatment of Cancer” (Therapure Biopharma Inc., priority 2016, published 2023).

One data set relates to human colon cancer. Description: Human colon cancer model: mice orthotopically implanted with GFP-transfected colon cancer tumor fragments. In kind it is in vivo. The procedure:
A study testing Hb-FUdR in mice orthotopically implanted with tumor fragments derived from colon cancer cells (transfected with green fluorescence protein for in-life tumor visualization was conducted as follows:
(§1) Study design: Fifty (50) tumor-bearing mice were randomly divided into five groups with ten (10) mice per group. Animals (10 mice per group) were treated with Hb-FUdR at 6, 32, and 161 mg Hb/kg (0.15, 0.74, and 3.7 mg FUdR/kg) twice weekly via intravenous injection (tail vein) at 5 mL/kg. Control untreated animals were treated with PBS at 5 mL/kg. Control FUdR treated animals were treated with 3.7 mg FUdR/kg. Study endpoint: The study was terminated 47 days post tumor inoculation. All remaining mice in each group were sacrificed at this time point. All animals in the PBS treated group and approximately 50% of animals in other treated groups died before the study endpoint. Therefore, survival time between groups was considered one of the criteria to assess the efficacy of the test agents. Primary tumors were excised and weighted at necropsy for subsequent analysis.
The anti-tumor efficacy of Hb-FUdR against the implanted human colon cancer was evaluated by comparing the primary tumor sizes measured twenty-one days after treatment initiation, and the differences in survival time between the Hb-FUdR treated and PBS control groups.

On the set-up of data set [1]: species or system mice. Conditions: mouse, in vivo. As for the experimental part:
as §1
[…]. […] Other symptoms of related toxicity were absent by gross observation.

The subject of the next data set is HCC. The conditions noted are these: SHARP trial; vs. 7.9 months; cited from earlier work.
Where [2] appears, read: Hb 0 mg/kg, FUdR 3.7 mg/kg (free drug), 9 mice evaluated.

Consider `O=c1[nH]c(=O)n([C@H]2C[C@H](O)[C@@H](CO)O2)cc1F` [FUdR, floxuridine], for which, in the data set on human colon cancer (setting [2]), the “No. of mice with L.N. met.” value turned out to be 6 and the “No. of mice with liver met.” value turned out to be 4. This molecule also registered a Mean survival time in the data set with human colon cancer (Hb 0 mg/kg, FUdR 3.7 mg/kg (free drug), study terminated 47 days post tumor inoculation) of 43.9 days. Also, the Average tumor volume in the data set with human colon cancer (Hb 0 mg/kg, FUdR 3.7 mg/kg (free drug), twenty-one days after treatment initiation) is given as 254.58 ± 196.74 mm^3. For the same molecule, the “Survival time of the treated mice” value in the data set with human colon cancer (summary statement) is recorded as “significantly prolonged survival time”. Also, the Toxicity entry in data set [1] is reported as “without obvious toxicity”.
For `CNC(=O)c1cc(Oc2ccc(NC(=O)Nc3ccc(Cl)c(C(F)(F)F)c3)cc2)ccn1` [Sorafenib], the Overall survival in the data set with HCC is reported as 10.7 months.
